Measurements taken from PMC4710668, “Bioactivation of food genotoxicants 5-hydroxymethylfurfural and furfuryl alcohol by sulfotransferases from human, mouse and rat: a comparative study” (Archives of Toxicology, 2014).

Assays:
mSult5a1 = experiment: FFA sulfoconjugation assay (N6-MF-A formation with adenosine as scavenger); type: biochemical, mouse
Method: (§1) Cytosolic fractions containing individual SULT forms were prepared from transgenic S. typhimurium TA1538. Table S1 in the Supplementary Material provides a summary of the thirty SULTs used in the current study together with references describing the cloning of the respective S. typhimurium TA1538 strains. The expressed SULT forms are denoted with the prefixes h, m and r for human, mouse and rat enzymes, respectively. Bacteria were grown in Luria Broth medium containing ampicillin (100 µg/ml) by stirring for 8 h at 200 revolutions/min at 37 °C. The bacterial suspensions were centrifuged at 5,000 g for 10 min. The sediments were washed twice with 25 ml of 10 mM potassium phosphate buffer (pH 7.4)/50 mM potassium chloride (KCP buffer) and centrifuged again. The pellets were taken up in 800 µl KCP buffer and sonicated thrice for 15 s with 30 s pauses in between. The soluble fraction was attained by centrifuging for 1 h at 100,000 g. The supernatants (in the following termed cytosolic preparations) were frozen at −80 °C. The protein concentrations were determined according to a bicinchoninic acid (BCA) assay protocol. The SULT concentrations in the cytosolic preparations were estimated after electrophoretic separation and immunodetection using inclusion bodies of different SULT forms as standards (Teubner et al. [2007]). The preparation of SULT inclusion bodies and the immunodetection of SULTs is described in the Supplementary Material, which also contains a representative immunoblot of different amounts of rSult1a1standard and a cytosolic preparation of S. typhimurium expressing rSult1a1 (Fig. S1).
(§2) The reaction mixtures were prepared as described for HMF. In addition, they contained 10 mM adenosine as a nucleophilic scavenger. Following incubation for 20 min at 37 °C, sulfoconjugation reactions were stopped by adding 100 µl cold methanol containing 175 fmol of [^15N5]N ^6-MF-A as the internal standard, mixed and centrifuged at 15,000 g for 10 min. The clear supernatants were subjected to UPLC-MS/MS analyses. Incubations were performed as quadruplicates. At higher concentrations, FFA reacts spontaneously with adenosine at low, but detectable, levels. To correct for the SULT-independent adduct formation, mixtures with SULT-deficient cytosols were carried along simultaneously in duplicate. Controls were subtracted from the experimental samples.
(§3) The ribonucleoside adduct N ^6-((furan-2-yl)methyl)-adenosine (N ^6-MF-A) was analyzed by isotope-dilution UPLC-MS/MS with the same system described above using a HSS T3 column (1.8 µm, 2.1 × 100 mm, Waters). Samples of 8 µl were eluted with 10 mM ammonium bicarbonate buffer, pH 8.0 (A) and methanol (B) using an 6-min gradient from 98 % solvent A to 15 % solvent A at 0.35 ml/min flow rate (Yin et al. [2013]). The electrospray interface of the mass spectrometer operated in the positive ion mode. The fragmentations of N ^6-MF-A into the aglycone cation [N ^6-((furan-2-yl)methyl)-adenine-H]^+ (m/z = 348.1 → 216.1), the cleavage of the 2-methylfuranyl cation (m/z = 348.1 → 81.0) and the release of [N ^6-methyl-adenine-H]^+ (m/z = 348.1 → 148.0) were monitored together with the corresponding fragmentations of the isotope-labeled internal standard [^15N5]N ^6-MF-A for the formation of the aglycone (m/z = 353.1 → 221.1), the 2-methylfuran cation (m/z = 353.1 → 81.0) and ^15N5-labeled N ^6-methyl-adenine (m/z = 353.1 → 153.0). The N ^6-MF-A content of the incubation mixture was calculated from the ratio of peak areas resulting from the total ion current of all three MRM signals of the analyte. For the fragmentation of N ^6-MF-A ([^15N5]N ^6-MF-A), collision energies were 20, 25 and 35 eV for the transitions m/z = 348.1 → 216.1 (m/z = 353.1 → 221.1), m/z = 348.1 → 148.0 (m/z = 353.1 → 153.0) and m/z = 348.1 → 81.0 (m/z = 353.1 → 81.0), respectively. […]

mSult2a3 = experiment: as above; type: biochemical, mouse
Method: as §1, §2, §3

OCc1ccco1 [FFA, furfuryl alcohol]
Rate of N6-MF-A formation (mSult5a1; 0.1 mM FFA): <18 fmol N ^6-MF-A/mg/min | Rate of N6-MF-A formation (mSult5a1; 1 mM FFA): <20 fmol N ^6-MF-A/mg/min | Rate of N6-MF-A formation (mSult5a1; 10 mM FFA): <44 fmol N ^6-MF-A/mg/min | Rate of N6-MF-A formation (mSult2a3; 0.1 mM FFA): <18 fmol N ^6-MF-A/mg/min | Rate of N6-MF-A formation (mSult2a3; 1 mM FFA): <20 fmol N ^6-MF-A/mg/min | Rate of N6-MF-A formation (mSult2a3; 10 mM FFA): <44 fmol N ^6-MF-A/mg/min
